Target: TAR RNA
Experiment: In vitro binding of resin-bound compounds to TAR RNA (OD260 of unbound RNA)
Parameters: species or system HIV
Details: in vitro assay; compounds of formula I on TentaGel beads incubated with TAR RNA overnight at 4° C. in TK buffer; read-out: Kd (nM), binding constants
Method: Binding of compounds of formula I and V to TAR RNA was measured by evaluating their inhibition of TAR-TAT complex formation in the presence of increasing levels of the compound to be tested. The compounds of formula I were tested in an in vitro assay; the compounds of formula V were tested in an in vivo assay.
The TAR RNA used corresponds to the minimal sequence required for TAT responsiveness in vivo. This 29-residue oligonucleotide has the sequence: 5′-[…]-3′ (SEQ ID NO.: 1). TAR RNA was prepared by in vitro transcription. A “top strand” single-stranded DNA oligomer having the sequence 5′-TAATACGACTCACTATAG-3′ (SEQ ID NO.: 2) was annealed to a “bottom strand” single-stranded DNA template having the following sequence: 3′-[…]-5′ (SEQ ID NO.: 3), thereby generating a double-stranded region corresponding to a promoter sequence recognized by T7 RNA polymerase. Transcription was carried out in transcription buffer (40 mM Tris-HCl, pH 8.1, 1 mM spermidine, 0.01% Triton®X-100, 5 mM dithiothreitol, 4 mM each of ATP, GTP, CTP, and UTP at 37° C. for 4 to 5 hours. Reactions were performed in a volume of 0.02 ml containing 8 pmole of template (top strand annealed to bottom strand) and 40 to 60 units of T7 RNA polymerase. Transcription was terminated by adding an equal volume of loading buffer (9M urea, 1 mmol EDTA, 0.1M bromophenol blue in 1XTBE buffer; TBE is 45 mmol trisborate at pH 8). Product RNA was purified by electrophoresis through a denaturing 20% polyacrylamide gel containing 8M urea. RNA was extracted from the gel, precipitated, dissolved in dithylpyrocarbonate-treated water, and stored at −20° C. until used.
In vitro assay conditions: Compounds AA-DU were synthesized on TentaGel S—NH2 (4.6 mmole). All Fmoc-amino acids were purchased from Bachem (Torrance, Calif.). 1-hydroxybenzotriazole (HOBT) and diisopropylcarbodiimide (DIPCDI) were obtained from Aldrich Chemical Co., Milwalkee, Wis. Piperidine and trifluoroacetic acid were purchased from Applied Biosystems Division, Perkin-Elmer. Compounds AA-DU were synthesized manually according to standard solid-phase peptide synthesis protocols. Coupling efficiencies of residues at each step were monitored by Kaiser test. Deprotection of trimer peptides was carried out in 10% water in trifluoroacetic acid (1 mL) for 16 hours at room temperature. After filtration of solvents, the resin was washed with water (1 mL×4), DMF (1 mL×4), dichloromethane (1 mL×4), and dried under reduced pressure. The compounds attached to the resin (10 beads) were placed in an Eppendorf tube and washed with TK buffer ([…]). The beads were suspended in TK buffer ([…]) and incubated with TAR RNA ([…]) overnight at 4° C. The suspension was centrifuged and the supernatant containing unbound RNA was transferred to a cuvette for OD260 measurements. The UV absorbance was measured by a Shimadzu UV-1601 spectrometer. Equilibrium concentrations of RNA were determined from these measurements. Given that the initial concentrations of ligand and RNA are known, and assuming simple bimolecular receptor/substrate binding, dissociation constant (KD) was calculated from straightforward equations.

| Kd | Compound |
| --- | --- |
| 183 nM | NCCCC[C@H](COC(N)=O)NC(=O)OC[C@H](CCCCN)NC(=O)[C@H](N)CCCCN (stereo in doubt) [Compound AM, Carbamic acid 6-amino-2-[6-amino-2-(2,6-diamino-hexanoylamino)-hexyloxycarbonylamino]-hexyl ester] |
| 202 nM | NCCCC[C@H](N)COC(=O)N[C@@H](CCCCN)C(=O)N[C@H](CCCCN)COC(N)=O (stereo in doubt) [Compound BT, Carbamic acid 6-amino-2-[6-amino-2-(2,6-diamino-hexyloxycarbonylamino)-hexanoylamino]-hexyl ester] |
| 403 nM | NCCCC[C@H](COC(N)=O)NC(=O)[C@H](CCCCN)NC(=O)[C@@H](N)CCCCN (stereo in doubt) [Compound BV, Carbamic acid 6-amino-2-[6-amino-2-(2,6-diamino-hexanoylamino)-hexanoylamino]-hexyl ester] |
| 567 nM | NCCCC[C@@H](COC(N)=O)NC(=O)OC[C@@H](CCCCN)NC(=O)[C@H](N)CCCCN (stereo in doubt) [Compound CD, Carbamic acid 6-amino-2-[6-amino-2-(2,6-diamino-hexanoylamino)-hexyloxycarbonylamino]-hexyl ester] |
| 130 nM | NCCCC[C@@H](COC(N)=O)NC(=O)OC[C@H](CCCCN)NC(=O)[C@@H](N)CCCCN (stereo in doubt) [Compound CL, Carbamic acid 6-amino-2-[6-amino-2-(2,6-diamino-hexanoylamino)-hexyloxycarbonylamino]-hexyl ester] |
| 215 nM | NCCCC[C@H](COC(N)=O)NC(=O)OC[C@@H](CCCCN)NC(=O)[C@@H](N)CCCCN [Compound AC, Carbamic acid 6-amino-2-[6-amino-2-(2,6-diamino-hexanoylamino)-hexyloxycarbonylamino]-hexyl ester] |
| 2080 nM | NCCCC[C@H](COC(N)=O)NC(=O)OC[C@@H](CCCCN)NC(=O)[C@H](N)CCCCN [Compound AD, Carbamic acid 6-amino-2-[6-amino-2-(2,6-diamino-hexanoylamino)-hexyloxycarbonylamino]-hexyl ester] |
| 1720 nM | NCCCC[C@@H](N)COC(=O)N[C@@H](CCCCN)COC(=O)N[C@H](CCCCN)COC(N)=O [Compound AK, Carbamic acid 6-amino-2-[6-amino-2-(2,6-diamino-hexyloxycarbonylamino)-hexyloxycarbonylamino]-hexyl ester] |
| 2720 nM | NCCCC[C@H](COC(N)=O)NC(=O)OC[C@H](CCCCN)NC(=O)[C@@H](N)CCCCN [Compound AL, Carbamic acid 6-amino-2-[6-amino-2-(2,6-diamino-hexanoylamino)-hexyloxycarbonylamino]-hexyl ester] |

More lines, now with the values behind:

| Compound | Kd |
| --- | --- |
| NCCCC[C@H](N)COC(=O)N(CCCCN)CC(=O)N[C@H](CCCCN)COC(N)=O (stereo in doubt) [Compound AS, Carbamic acid 6-amino-2-{2-[(4-amino-butyl)-(2,6-diamino-hexyloxycarbonyl)-amino]-acetylamino}-hexyl ester] | 147 nM |
| NCCCCCN(CC(=O)N[C@H](CCCCN)COC(N)=O)C(=O)OC[C@H](N)CCCCN (stereo in doubt) [Compound BC, Carbamic acid 6-amino-2-{2-[(5-amino-pentyl)-(2,6-diamino-hexyloxycarbonyl)-amino]-acetylamino}-hexyl ester] | 183 nM |
| NCCCC[C@H](N)COC(=O)N[C@@H](CCCCN)COC(=O)N[C@@H](CCCCN)COC(N)=O (stereo in doubt) [Compound CJ, Carbamic acid 6-amino-2-[6-amino-2-(2,6-diamino-hexyloxycarbonylamino)-hexyloxycarbonylamino]-hexyl ester] | 1260 nM |
| NCCCC[C@H](N)COC(=O)N[C@H](CCCCN)COC(=O)N[C@H](CCCCN)COC(N)=O [Compound AA, Carbamic acid 6-amino-2-[6-amino-2-(2,6-diamino-hexyloxycarbonylamino)-hexyloxycarbonylamino]-hexyl ester] | 639 nM |
| NCCCC[C@@H](N)COC(=O)N[C@H](CCCCN)COC(=O)N[C@H](CCCCN)COC(N)=O [Compound AB, Carbamic acid 6-amino-2-[6-amino-2-(2,6-diamino-hexyloxycarbonylamino)-hexyloxycarbonylamino]-hexyl ester] | 523 nM |
| NCCCCCNCC(=O)N[C@H](CCCCN)COC(=O)N[C@H](CCCCN)COC(N)=O [Compound AE, Carbamic acid 6-amino-2-{6-amino-2-[2-(5-amino-pentylamino)-acetylamino]-hexyloxycarbonylamino}-hexyl ester] | 1110 nM |
| NCCCCCCCNCC(=O)N[C@H](CCCCN)COC(=O)N[C@H](CCCCN)COC(N)=O [Compound AF, Carbamic acid 6-amino-2-{6-amino-2-[2-(7-amino-heptylamino)-acetylamino]-hexyloxycarbonylamino}-hexyl ester] | 491 nM |
| NCCCCNCC(=O)N[C@H](CCCCN)COC(=O)N[C@H](CCCCN)COC(N)=O [Compound AG, Carbamic acid 6-amino-2-{6-amino-2-[2-(4-amino-butylamino)-acetylamino]-hexyloxycarbonylamino}-hexyl ester] | 403 nM |
| N=C(N)NCCC[C@H](N)COC(=O)N[C@H](CCCCN)COC(=O)N[C@H](CCCCN)COC(N)=O [Compound AH, Carbamic acid 6-amino-2-[6-amino-2-(2-amino-5-guanidino-pentyloxycarbonylamino)-hexyloxycarbonylamino]-hexyl ester] | 460 nM |
| NCCCC[C@H](COC(N)=O)NC(=O)OC[C@@H](CCCCN)NC(=O)OC[C@H](N)CCC(N)=O [Compound AI, Carbamic acid 6-amino-2-[6-amino-2-(2-amino-4-carbamoyl-butoxycarbonylamino)-hexyloxycarbonylamino]-hexyl ester] | 603 nM |
| NCCCC[C@H](N)COC(=O)N[C@@H](CCCCN)COC(=O)N[C@H](CCCCN)COC(N)=O [Compound AJ, Carbamic acid 6-amino-2-[6-amino-2-(2,6-diamino-hexyloxycarbonylamino)-hexyloxycarbonylamino]-hexyl ester] | 4310 nM |
| NCCCCCNCC(=O)N[C@@H](CCCCN)COC(=O)N[C@H](CCCCN)COC(N)=O [Compound AN, Carbamic acid 6-amino-2-{6-amino-2-[2-(5-amino-pentylamino)-acetylamino]-hexyloxycarbonylamino}-hexyl ester] | 183 nM |
| NCCCCCCCNCC(=O)N[C@@H](CCCCN)COC(=O)N[C@H](CCCCN)COC(N)=O [Compound AO, Carbamic acid 6-amino-2-{6-amino-2-[2-(7-amino-heptylamino)-acetylamino]-hexyloxycarbonylamino}-hexyl ester] | 120 nM |
| NCCCCNCC(=O)N[C@@H](CCCCN)COC(=O)N[C@H](CCCCN)COC(N)=O [Compound AP, Carbamic acid 6-amino-2-{6-amino-2-[2-(4-amino-butylamino)-acetylamino]-hexyloxycarbonylamino}-hexyl ester] | 1490 nM |
| N=C(N)NCCC[C@H](N)COC(=O)N[C@@H](CCCCN)COC(=O)N[C@H](CCCCN)COC(N)=O [Compound AQ, Carbamic acid 6-amino-2-[6-amino-2-(2-amino-5-guanidino-pentyloxycarbonylamino)-hexyloxycarbonylamino]-hexyl ester] | 2080 nM |
| NCCCC[C@H](COC(N)=O)NC(=O)OC[C@H](CCCCN)NC(=O)OC[C@H](N)CCC(N)=O [Compound AR, Carbamic acid 6-amino-2-[6-amino-2-(2-amino-4-carbamoyl-butoxycarbonylamino)-hexyloxycarbonylamino]-hexyl ester] | 376 nM |
| NCCCC[C@@H](N)COC(=O)N(CCCCN)CC(=O)N[C@H](CCCCN)COC(N)=O [Compound AT, Carbamic acid 6-amino-2-{2-[(4-amino-butyl)-(2,6-diamino-hexyloxycarbonyl)-amino]-acetylamino}-hexyl ester] | 165 nM |
